Test results reported in PubChem BioAssay AID248 (DTP/NCI, 2004).
“And” between values parts separate entries of the source, which are not always exact repeats. Identical values can stand only once. Inconclusive results and toxic doses are left out. No stated cut-off is given here; in the data, active means T/C of 150% or more; inactive means T/C below 125%.

System: L1210 leukemia ip in BDF1 mice, survival T/C
Experiment: NCI In Vivo Anticancer Drug Screen. Data for tumor model L1210 Leukemia (intraperitoneal) in B6D2F1 (BDF1) mice
Details: endpoint: mean survival time, higher = longer survival
Procedure, shortened: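 Ratio derived from survival: compound-dosed mice over vehicle-dosed mice, all bearing a transplantable tumor.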

[1] = dose: 100.0 mg/kg/injection, schedule: Q04DX002 (ip), vehicle: saline
[2] = dose: 100.0 mg/kg/injection, schedule: Q04DX003 (ip), vehicle: Klucel (hydroxypropylcellulose) (HPC)
[3] = dose: 50.0 mg/kg/injection, schedule: Q01DX001 (ip), vehicle: carboxymethylcellulose (CMC)
[4] = dose: 100.0 mg/kg/injection, schedule: Q01DX001 (ip), vehicle: carboxymethylcellulose (CMC)
[5] = dose: 200.0 mg/kg/injection, schedule: Q01DX001 (ip), vehicle: carboxymethylcellulose (CMC)
[6] = dose: 400.0 mg/kg/injection, schedule: Q01DX001 (ip), vehicle: carboxymethylcellulose (CMC)
[7] = dose: 100.0 mg/kg/injection, schedule: Q01DX001 (ip), vehicle: Klucel (hydroxypropylcellulose) (HPC)
[8] = dose: 100.0 mg/kg/injection, schedule: Q01DX009 (ip), vehicle: Klucel (hydroxypropylcellulose) (HPC)
[9] = dose: 200.0 mg/kg/injection, schedule: Q01DX001 (ip), vehicle: Klucel (hydroxypropylcellulose) (HPC)
[10] = dose: 200.0 mg/kg/injection, schedule: Q01DX009 (ip), vehicle: Klucel (hydroxypropylcellulose) (HPC)
[11] = dose: 400.0 mg/kg/injection, schedule: Q01DX001 (ip), vehicle: Klucel (hydroxypropylcellulose) (HPC)
[12] = dose: 100.0 mg/kg/injection, schedule: Q04DX003 (ip), vehicle: saline with Tween-80
[13] = dose: 200.0 mg/kg/injection, schedule: Q04DX003 (ip), vehicle: saline with Tween-80
[14] = dose: 400.0 mg/kg/injection, schedule: Q04DX003 (ip), vehicle: saline with Tween-80

Measured: T/C

C=C1CC(CCCCC2CC(=C)C(=O)O2)OC1=O (stereo not given)
inactive: [1] 108 % of control | dose: 200.0 mg/kg/injection, schedule: Q04DX002 (ip), vehicle: saline 101 % of control | dose: 400.0 mg/kg/injection, schedule: Q04DX002 (ip), vehicle: saline 108 % of control

CC(=O)Nc1ccc(C(=O)C[n+]2ccc3ccccc3c2)cc1
inactive: [2] 97 % of control | dose: 200.0 mg/kg/injection, schedule: Q04DX003 (ip), vehicle: Klucel (hydroxypropylcellulose) (HPC) 92 % of control | dose: 400.0 mg/kg/injection, schedule: Q04DX003 (ip), vehicle: Klucel (hydroxypropylcellulose) (HPC) 94 % of control

NNC(=S)Nc1cccc(Cl)c1
inactive: dose: 75.0 mg/kg/injection, schedule: Q01DX001 (ip), vehicle: saline 103 % of control | dose: 150.0 mg/kg/injection, schedule: Q01DX001 (ip), vehicle: saline 102 % of control

S=C(N/N=C\c1ccc(Cl)cc1Cl)Nc1ccc2cn[nH]c2c1
inactive: [3] 102 % of control | [4] 98 % of control | [5] 86 % of control | [6] 91 % of control

CC(C)(C)c1cc(/C=N/n2c(-c3ccccc3)nc3ccccc3c2=O)cc(C(C)(C)C)c1O
inactive: [7] 89 % of control | [8] 89 % of control and 91 % of control | dose: 100.0 mg/kg/injection, schedule: Q04DX002 (ip), vehicle: Klucel (hydroxypropylcellulose) (HPC) 95 % of control | [9] 89 % of control | [10] 95 % of control and 91 % of control | dose: 200.0 mg/kg/injection, schedule: Q04DX002 (ip), vehicle: Klucel (hydroxypropylcellulose) (HPC) 98 % of control | [11] 93 % of control | dose: 400.0 mg/kg/injection, schedule: Q04DX002 (ip), vehicle: Klucel (hydroxypropylcellulose) (HPC) 97 % of control and 100 % of control

Clc1ccc(/C=N\Nc2ccccc2)c(Cl)c1
inactive: [7] 103 % of control | [9] 101 % of control | [11] 109 % of control

COc1ccc(OCC(=O)N2CCCCC2)cc1
inactive: dose: 100.0 mg/kg/injection, schedule: Q01DX009 (ip), vehicle: carboxymethylcellulose (CMC) 92 % of control | dose: 200.0 mg/kg/injection, schedule: Q01DX009 (ip), vehicle: carboxymethylcellulose (CMC) 106 % of control

CCC(C(=O)O)N(C)Cc1ccccc1 (stereo not given)
inactive: dose: 100.0 mg/kg/injection, schedule: Q01DX009 (ip), vehicle: saline with Tween-80 92 % of control | dose: 200.0 mg/kg/injection, schedule: Q01DX009 (ip), vehicle: saline with Tween-80 89 % of control | dose: 400.0 mg/kg/injection, schedule: Q01DX009 (ip), vehicle: saline with Tween-80 89 % of control

NC(=O)NNC(=O)NNC(N)=O
inactive: [3] 95 % of control | [4] 95 % of control | [5] 95 % of control | [6] 103 % of control

COC(OC)c1[nH]c(=S)[nH]c(=O)c1Cc1ccc(-c2ccccc2)cc1
inactive: [12] 101 % of control | [13] 100 % of control | [14] 95 % of control

N#C/C(=C\C=C\c1ccccc1)C(=O)O
inactive: dose: 12.5 mg/kg/injection, schedule: Q04DX003 (ip), vehicle: Klucel (hydroxypropylcellulose) (HPC) 96 % of control | dose: 25.0 mg/kg/injection, schedule: Q04DX003 (ip), vehicle: Klucel (hydroxypropylcellulose) (HPC) 107 % of control | dose: 50.0 mg/kg/injection, schedule: Q04DX003 (ip), vehicle: Klucel (hydroxypropylcellulose) (HPC) 96 % of control | [2] 94 % of control

O=c1[nH]c(=O)n(C2CCCO2)cc1I (stereo not given)
inactive: [4] 95 % of control | [5] 98 % of control | [6] 93 % of control

C[N+]1(C)C2CCCCC1CC(=O)C2
inactive: dose: 10.0 mg/kg/injection, schedule: Q01DX001 (ip), vehicle: saline 96 % of control | dose: 20.0 mg/kg/injection, schedule: Q01DX001 (ip), vehicle: saline 98 % of control | dose: 40.0 mg/kg/injection, schedule: Q01DX001 (ip), vehicle: saline 95 % of control

CCC1=CC(=O)C(CC)=CC1=O
inactive: [12] 89 % of control | [13] 94 % of control | dose: 700.0 mg/kg/injection, schedule: Q04DX003 (ip), vehicle: saline with Tween-80 100 % of control

O=C(NCCCCNC(=O)Nc1cccc(C2=NCCN2)c1)Nc1cccc(C2=NCCN2)c1
inactive: dose: 12.0 mg/kg/injection, schedule: Q01DX Z (ip), vehicle: carboxymethylcellulose (CMC) 114 % of control | dose: 23.0 mg/kg/injection, schedule: Q01DX Z (ip), vehicle: carboxymethylcellulose (CMC) 100 % of control | dose: 46.0 mg/kg/injection, schedule: Q01DX Z (ip), vehicle: carboxymethylcellulose (CMC) 108 % of control

COc1cc(OC)c(NC(=O)c2c(Br)c(Br)c(Br)c(Br)c2C(=O)O)cc1Cl
inactive: [8] 107 % of control | [10] 94 % of control | dose: 400.0 mg/kg/injection, schedule: Q01DX009 (ip), vehicle: Klucel (hydroxypropylcellulose) (HPC) 95 % of control

C=CC1C[N+]2(SS(=O)(=O)O)CCC1CC2C(O)c1ccnc2ccc(OC)cc12 (stereo not given)
inactive: dose: 18.8 mg/kg/injection, schedule: Q01DX009 (ip), vehicle: saline 91 % of control | dose: 37.5 mg/kg/injection, schedule: Q01DX009 (ip), vehicle: saline 94 % of control | dose: 75.0 mg/kg/injection, schedule: Q01DX009 (ip), vehicle: saline 88 % of control

O=C1CNc2ccc(Cl)cc2N1
inactive: dose: 100.0 mg/kg/injection, schedule: Q04DX003 (ip), vehicle: acetone 92 % of control | dose: 200.0 mg/kg/injection, schedule: Q04DX003 (ip), vehicle: acetone 95 % of control | dose: 400.0 mg/kg/injection, schedule: Q04DX003 (ip), vehicle: acetone 88 % of control

O=C(O)CNC(=O)CNC(=O)C(Br)Cc1ccccc1 (stereo not given)
inactive: [8] 98 % of control | [12] 101 % of control | [10] 88 % of control | [13] 95 % of control | [14] 100 % of control

CCOC(=O)/C(Cc1n[n+]([O-])ccc1Cl)=N\N
inactive: dose: 43.75 mg/kg/injection, schedule: Q04DX002 (ip), vehicle: Klucel (hydroxypropylcellulose) (HPC) 116 % of control | dose: 87.5 mg/kg/injection, schedule: Q04DX002 (ip), vehicle: Klucel (hydroxypropylcellulose) (HPC) 101 % of control | dose: 175.0 mg/kg/injection, schedule: Q04DX002 (ip), vehicle: Klucel (hydroxypropylcellulose) (HPC) 96 % of control

CC1C=CC(c2ccccc2)C2C(=O)OC(=O)C12 (stereo not given)
inactive: dose: 50.0 mg/kg/injection, schedule: Q01DX009 (ip), vehicle: Klucel (hydroxypropylcellulose) (HPC) 111 % of control | [8] 101 % of control

CC1([N+](=O)[O-])COP(=O)(Nc2cccc(Br)c2)OC1 (stereo not given)
inactive: [4] 96 % of control | [5] 94 % of control | [6] 100 % of control

CCCCCCC(=O)N1CCOCC1
inactive: dose: 25.0 mg/kg/injection, schedule: Q04DX002 (ip), vehicle: saline 108 % of control | dose: 50.0 mg/kg/injection, schedule: Q04DX002 (ip), vehicle: saline 101 % of control | [1] 93 % of control and 92 % of control

O=C(Nc1ccccc1)OCC(OC(=O)Nc1ccccc1)C(COC(=O)Nc1ccccc1)OC(=O)Nc1ccccc1 (stereo not given)
inactive: dose: 25.0 mg/kg/injection, schedule: Q04DX002 (ip), vehicle: saline with Tween-80 100 % of control | dose: 50.0 mg/kg/injection, schedule: Q04DX002 (ip), vehicle: saline with Tween-80 100 % of control | dose: 100.0 mg/kg/injection, schedule: Q04DX002 (ip), vehicle: saline with Tween-80 92 % of control | dose: 400.0 mg/kg/injection, schedule: Q04DX002 (ip), vehicle: saline with Tween-80 88 % of control
